Inhibition data for one compound are collected here from article PMC6934184, “Selective DNA-PKcs inhibition extends the therapeutic index of localized radiotherapy and chemotherapy” (The Journal of Clinical Investigation, 2019).

SMILES strings stand for the structures.

In the test the target is T1, FYN (Homo sapiens, UniProt P06241).
T1 construct: purchased Thermo Fisher Scientific (Life Technologies) SelectScreen
The test can be described thus: SelectScreen Z'LYTE. It is filed as biochemical. The method, boiled down:
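NU5455 was profiled across the SelectScreen Broad panel of kinase activity and binding assays. Z'LYTE reactions such as CSF1R ran at apparent Km ATP, while the Adapta CAMK1 assay used ATP listed as 10. Values are given as percent.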

T1 sequence (P06241 whole entry): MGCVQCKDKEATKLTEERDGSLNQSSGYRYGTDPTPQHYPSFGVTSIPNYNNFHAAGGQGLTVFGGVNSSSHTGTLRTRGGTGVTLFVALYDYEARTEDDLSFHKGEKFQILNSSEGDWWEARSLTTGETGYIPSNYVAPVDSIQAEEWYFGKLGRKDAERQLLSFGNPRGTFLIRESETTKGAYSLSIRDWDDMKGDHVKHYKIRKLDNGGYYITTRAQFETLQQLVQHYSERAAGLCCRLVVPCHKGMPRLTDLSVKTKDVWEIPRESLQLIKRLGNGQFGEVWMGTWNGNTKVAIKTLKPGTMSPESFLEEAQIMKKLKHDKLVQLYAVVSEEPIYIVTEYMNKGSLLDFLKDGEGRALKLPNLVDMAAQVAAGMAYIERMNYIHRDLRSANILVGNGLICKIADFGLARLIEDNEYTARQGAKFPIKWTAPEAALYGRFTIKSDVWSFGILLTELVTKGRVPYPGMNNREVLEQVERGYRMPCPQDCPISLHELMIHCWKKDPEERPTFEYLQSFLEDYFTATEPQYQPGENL

The inhibition is the change of the read-out against control, counted positive when it falls. A high value points to strong suppression. In turn, `CN(C(=O)CN1CCOCC1)c1ccc2sc3c(-c4cccc5c(=O)cc(N6CC7CCC(C6)O7)oc45)cccc3c2c1` [NU5455] came in with an inhibition at 1 µM of 8.3%.
